Patent US8481515B2, “Derivatives of cholest-4-en-3-one oxime, pharmaceutical compositions containing them and preparation method” (Trophos, priority 2005, dated 2013)

Experiments:
rat motoneurons = assay: in vitro trophic deprivation model of rat motoneurons (survival, calcein fluorescence); assay type: cell-based; settings: 3 days of culture, no trophic factors
Text: It may be helpful to refer to Patent Application WO 0142784 of the applicant on the culture of spinal cord motoneurons.
The spinal cord of E14 rat embryos is dissected and the ventral portion is dissociated by trituration after trypsinization. The motoneurons are separated from the other spinal cells by a known method (Camu et al, 1993, Purification of spinal motoneurons from chicken and rat embryos by immunopanning. In <<Immunoselection Strategies for Neural cell culture>>), Neuroprotocols: A companion to Methods in Neurosciences 2, 191-199; Henderson et al., 1993, Neutrophins promote motor neuron survival and are present in embryonic limb bud. Nature 363 (6426):266-70). The cells are centrifuged on a density gradient. The motoneurons are enriched with the fraction of large (the less dense) cells. The cells of this fraction are incubated with an anti-p75 antibody, a surface antigen present on motoneurons. Secondary antibodies coupled with magnetic beads are added and the cell mixture is passed through a column in a magnet (Arce et al, 1999 Cardiotrophin-1 requires LIFRbeta to promote survival of mouse motoneurons purified by a novel technique. J. Neurosci Res 55(1): 119-26). Only motoneurons are retained: their purity is of the order of 90%.
The motoneurons are sown at low density in culture wells on a polyornithine-laminine substrate in a neurobasal medium (GIBCO) supplemented according to Raoul et al, 1999, Programmed cell death of embryonic motoneurons triggered through the Fas death receptor. J. Cell. Biol. 147(5):1049-62. Negative (absence of trophic factors) controls and positive controls (in the presence of 1 ng/ml BDNF (Brain-Derived Neurotrophic Factor), 1 ng/ml GDNF (Glial-Derived Neurotrophic Factor) and 10 ng/ml CNTF (Ciliary Neurotrophic Factor) as marketed by the US company PEPROTECH, Inc. and Sigma-Aldrich) are included in each series.
The compounds to be tested are added 60 minutes after sowing and the cultures are maintained at 37° C. under 5% CO2 for 3 days.
The motoneurons tend to die spontaneously in the absence of neurotrophic factors (Pettmann and Henderson, 1998, Neuronal cell death. Neuron 20(4):633-47). After 3 days, survival is evaluated by a fluorescence measurement after incubation of the cells in the presence of calcein which becomes fluorescent in living cells.
After 3 days of culture at 37° C. under 5% CO2 and in saturating humidity, up to 50% of the initially sown motoneurons survive in the medium supplemented with neurotrophic factors, whereas less than 15% of the motoneurons survive in a culture medium not added with neurotrophic factors.
The neuroprotective activity of the compounds to be tested was evaluated by their capacity of preventing the death of motoneurons when they are added to the Neurobasal medium (GIBCO) as compared with survival of the motoneurons in a medium added with neurotrophic factors.
The compounds of formula I according to the invention have shown neuroprotective activity at a concentration capable of providing a better survival rate of the motoneurons in the Neurobasal medium. This survival rate is expressed by the number of living cells after treatment with the compound to be tested as compared with survival induced by neurotrophic factors. This ratio therefore represents the survival percentage due to the tested compound as compared with the survival induced by neurotrophic factors. If the ratio is greater than 0, the effect of the compound is positive for the survival of motoneurons.

striatal neurons = assay: protection of striatal neurons against death induced by overexpression of a mutated form of huntingtin; assay type: cell-based; settings: 7 days, living cells expressing GFP
Description: Primary cultures of striatal neurons are prepared and they are described in the literature (Primary striatal neuronal culture, Mao L. et al., Methods Mol. Med., 2003, 79:379-86). […] A second expression vector containing the DNA coding for the green fluorescent protein (GFP) is also electroporated and is used as a reporter gene. The DNA of the plasmid coding for the huntingtin was prepared by purifying with cesium chloride. The plasmid containing the GFP sequence was prepared on Qiagen columns. The integrity of the DNA sequences is checked by sequencing, transfection and Western blotting. The cells which survive electroporation are sown at a density of 4,000 cellules per well of 96-well plates. The culture is accomplished in neurobasal medium (GIBCO) supplemented with pyruvate and B-27 (Beckton Dickinson). The cells are maintained in culture for 7 days without changing the medium.
[…] Positive controls are made by adding BDNF at a final level of 5 ng/ml. The negative controls only receive 0.5% DMSO.
Cell death is evaluated after 7 days by counting the number of living cells expressing GFP.
The activity of the compounds to be tested was evaluated by their capacity of preventing death of striatal neurons cultivated in the neurobasal medium as compared with the survival of striatal neurons in a medium supplemented with BDNF (Brain-Derived Neurotrophic Factor).

cortical neurons = assay: protection of cortical neurons against camptothecin-induced death (calcein-AM cell count); assay type: cell-based, Sprague-Dawley rat; settings: 10 μM camptothecin, 16 hours, mean ± standard deviation, n = 8 wells
Description: Cortical neurons were prepared from Sprague-Dawley rat embryos in the E18 pregnancy stage and cultivated in a 96-well plate at a density of 333 cells/mm^2 in Neurobasal medium (Invitrogen) supplemented with 2% B27 (Invitrogen) and 2% sodium pyruvate. With these culture conditions, it is possible to obtain very good cortical neuron purity in the cultures. After 6 days in culture, the death of cortical neurons was induced by adding 10 μM camptothecin dissolved in dimethyl sulfoxide (DMSO). At the same moment, the neurons were treated with different concentrations of the compound to be tested. The final DMSO concentration after treatment is 1%. After 16 hours of incubation with camptothecin, the survival of the neurons was evaluated by counting the surviving cells. To do this, the cells were incubated for 20 minutes in the presence of a vital dye, calcein-AM (Invitrogen) at 2 μg/ml. After labelling, each culture well was analyzed by means of an imaging station (Flash Cytometer, TROPHOS, FRANCE) provided with an image analysis software package TINA 4.5 (TROPHOS, France) allowing acquisition of digital images of the whole of the well (exposure time 40 ms). The cells, defined by pixel size criteria (min=10; max=40), were then counted by means of the Tina 4.5 software package (TROPHOS)

## CC(C)=CCC[C@@H](C)[C@H]1CC[C@H]2[C@@H]3CC(=NO)C4=CC(=NO)CC[C@]4(C)[C@H]3CC[C@]12C [Example 10, cholest-4,24-dien-3,6-dioxime]
Rat motoneurons; concentration 1 μM
  Ratio (survival of motoneurons with compound as compared with survival induced by neurotrophic factors): 0.25

## CC(C)CCC[C@@H](C)[C@H]1CC[C@H]2[C@@H]3CC(=NO)C4=CC(=NO)CC[C@]4(C)[C@H]3CC[C@]12C [Example 9, cholest-4-en-3,6-dioxime]
Rat motoneurons; concentration 0.6 μM
  Ratio (survival of motoneurons with compound as compared with survival induced by neurotrophic factors): 0.25
Striatal neurons; concentration 0.3 μM
  Ratio (survival of striatal neurons as compared with survival in medium supplemented with BDNF): 0.5

## CCC(C=C[C@@H](C)[C@H]1CC[C@H]2[C@@H]3CC(=O)C4=CC(=NO)CC[C@]4(C)[C@H]3CC[C@]12C)C(C)C (stereo partly shown) [Example 7, 24-ethyl-3-oxyimino-cholest-4,22-dien-6-one]
Rat motoneurons; concentration 1 μM
  Ratio (survival of motoneurons with compound as compared with survival induced by neurotrophic factors): 0.46

## CCC(C=C[C@@H](C)[C@H]1CC[C@H]2[C@@H]3CC(=NO)C4=CC(=NO)CC[C@]4(C)[C@H]3CC[C@]12C)C(C)C (stereo partly shown) [Example 13, 24-ethyl-cholest-4,22-dien-3,6-dioxime]
Rat motoneurons; concentration 1 μM
  Ratio (survival of motoneurons with compound as compared with survival induced by neurotrophic factors): 0.34

## CC(C)CCC[C@@H](C)[C@H]1CC[C@H]2[C@@H]3CC(=O)C4=CC(=NO)CC[C@]4(C)[C@H]3CC[C@]12C [Example 3, 3-oxyimino-cholest-4-en-6-one]
Rat motoneurons; concentration 3 μM
  Ratio (survival of motoneurons with compound as compared with survival induced by neurotrophic factors): 0.60
Striatal neurons; concentration 1 μM
  Ratio (survival of striatal neurons as compared with survival in medium supplemented with BDNF): 0.3
Cortical neurons; 0.1 μM compound
  Cell viability (%): 63.3 ± 20.3%
Cortical neurons; 0.3 μM compound
  Cell viability (%): 99.1 ± 15.7%
Cortical neurons; 1 μM compound
  Cell viability (%): 112.2 ± 22.3%
